# Like-named read-outs stand apart in the source and are kept apart here.
# What was measured:
# HeLa-HRE cells = assay: Resazurin cytotoxicity assay, HeLa-HRE, 48 h; details: for IC50(HeLa)/IC50(A549): ratio HeLa vs A549
# Procedure: (§1) We used A549 lung cancer and HeLa cervical cancer cell lines for initial screening of the prodrugs.
# HeLa-HRE cells were treated with prodrugs of the
# Dose -response curves were calculated from at least 27 incremental single concentrations over a
# range of at least three log units.
# [1] = Cell-free HPLC reduction assay (GSH or TCEP challenge); details: 5 mM GSH (50 equiv), 24 h
# From the text: These performance features had not been tested with naphthols, so we used HPLC to test them and show their reduction-based activation sequence (Figure 2c and Figures S4–S6).
# In brief, treatment with the quantitative reductant TCEP triggered a reaction cascade matching the activation sequence we expected (Figure 2c): dichalcogenides are reduced to dichalcogenols that cyclize, giving the naphthol cargos (plus thiol trigger byproduct) that evolve to the activated cyclopropanes (Figure 5).
# The mobile phase consists of eluent A: water (analytical
# grade, 0.1% formic acid) and eluent B: MeCN (analytical grade, 0.1% formic acid).
# using a gradient of 10% B t o 90% B over 10 min.
# Reduction assay using TCEP and GSH
# tris(2-carboxyethyl)phospine) (TCEP, 5 mM in TE-bu f f e r ) , or reduced glut at hione (GSH, 50 mM in TE-buf f er) or
# else blank TE-buffer. Final concentrations: Prodrug (0.1 mM) , TCEP ( 0. 5 mM) , G SH ( 5 mM). The blank sample
# was measured after 10 min (“pure”) and 24 h (“O H-“) to control for basic hydrolysis. The GSH sample was
# measured after 24 h to control for monothiol-based reductive release. The TCEP sample was measured at several […]
# extracted for each of the intermediate species and final r elease products. Peak areas were calculated relative to
# the sum of all peak areas at 320 nm to quantify individual species at each timepoints. […]
# A549 cells = assay: Resazurin cytotoxicity assay, A549, 72 h; details: read-out: IC50(nM): A549
# Procedure: as §1
# Fi gure S9: Cell ular resazurin-based cytotoxi ci ty as s a y.
# Dose -response curves were calculated from at least 27 incremental single concentrations over a range
# of at least three log units. Individual experiments with annotated experiment numbers are shown for each prodrug
# [2] = test system: NCI-60 standardized human tumor cell line panel; assay: cells; format: cell-based; details: AZI sheet, read-out: GI50
# Balb/c mice [3] = assay: Single-dose toxicity study; format: in vivo; details: week following treatment
# Procedure: To test if low prodrug activation could enable in vivo use, we performed dosing and toxicity studies in Balb/c mice, comparing the toxicity and the tolerated dosing of low-reducible SS60-CBI-AZI or substantially reducible SeS60-CBI-AZI and to those of non-reducible carbamate O56-CBI-AZI. Single-dose toxicity was studied over the range 0.1–10 mg/kg.
# Methods for in vivo animal studies
# (§2) All in vivo studies were conducted as contract research together with React ionBiology Eur ope G mbH (Freiburg,
# (§3) Germany), EPO – Experimental Pharmacology & Oncology GmbH (Berlin, Germany); Bient a/ Enam ine Lt d. (Kyiv,
# (§4) Ukraine) and Leit at – Managing Technologies (Barcelona, Spain), adhering to the respective animal welfare
# (§5) Mice were kept in individually ventilated cages at constant temperature (22±2 °C, air-conditioned) and humidity (45
# (§6) – 65%), under optimum hygienic conditions with 10 – 15 air changes per hour. A cycle of 12 h artificial fluorescent
# (§7) light ning and 12 h darkness was applied , and animal behavior was monitored daily throughout the studies. The
# (§8) animals received food and water ad libit um.
# (§9) To evaluate toxicity of selected compounds, dose level selection studies within dose range from 0.1 mg/kg to
# 10 mg/kg were performed by intravenous administration into Balb /c mice. […]
# were monitored after each drug administration and three times per week for 21 consecutive days after the first […]
# mouse = assay: Tolerability for repeated dose administration in vivo (summary); details: repeated dose administration
# [4] = In vivo plasma pharmacokinetics; details: Balb/c mice, i.v. 5 mg/kg
# Procedure: We first examined the in vivo pharmacokinetics of representative compound SS60-CBI-AZI in Balb/c mice after i.v. administration at 5 mg/kg (3 animals per time point, 4 time points from 5 to 90 min post injection).
# as §5, §6, §7, §8
# Pharm acokinetics o f SS60-CBI-AZI
# Following single dose intravenous administration, levels of SS60-CBI-AZI in blood plasm a over t im e wer e
# det ermined by HPLC-MS/MS. Treatm ent gr oups wer e three Balb/c mice (randomly assigned ) per t ime point (t otal:
# Blood collection was performed from the orbital sinus in
# microtainers containing K 2EDTA. All samples were immediately processed, flash -frozen and stored at -70 °C unt il
# 400 ng/mL in et hanol). After mixing by pipetting and centrifuging for 4 min at 6000 rpm, 2 μL of each supernatant
# was injected into LC-MS/MS (Shimadzu LC: 2 isocratic pumps LC-10ADvp, autosampler SIL-20AC, sub-controller
# FCV-14AH, degasser DGU-14 A; AB Sciex MS: API 3000 ( tr iple-quadrupole), ESI). The data acquisition and system […]
# Balb/c mice [5] = assay: Moderate repeated dosing tolerability study; format: in vivo
# Procedure: Next, a moderate repeated dosing study in Balb/c mice (3 animals per group) tested the importance of solubilizing the prodrugs.
# Methods for in vivo animal studies
# as §2, §3, §4, §5, §6, §7, §8, §9
# 10 mg/kg were performed by intravenous administration into Balb /c mice. Each dose for each tested compound
# was administered in one mouse.
# changes and clinical signs of gross toxicity three tim es per week for 21 consecutive days of post-dosing period.
# After the first week of observation without adverse events, two doses for each test compound were selected as
# tolerated. These two doses were tested in two additional mice for confirmation of toler ability. Additional animals
# consecutive days of post-dosing period. Toxicity of repeated administrations was tested wit h t hr ee repeat ed pr e-
# selected doses at a dosing interval of 7 days. Mortality, body weight changes, and clinical signs of gross toxicity
# were monitored after each drug administration and three times per week for 21 consecutive days after the first
# compound administration. Bleed ing with subsequent hematological tests, clinical chemistry parameters analysis
# (ALT, AST, ALP, LDH, creatine kinase, creatinine, urea, cholesterol, and triglycerides), and necropsy with
# macroscopic inspection were performed on the terminal day of the repeated dosing-regime.
# To test tolerability of selected compounds in vivo, female BALB/c mice were randomized by weight into seven
# groups of t hree animals.
# [6] = test system: Balb/c mice with 4T1 tumors; assay: 4T1-bearing tolerability study; details: 10 mg/kg
# From the text: Finally, another large study intended for antitumor efficacy also had to be examined only in terms of tolerability.
# (a,c, e, g, h): BxPC-3 subcutaneous xenograft in NMRi mice, 10 mice per group; ( b, d, f,i ,j): 4T1 murine breast cancer syngeneic orthotopic implant in Balb/c mice,
# (a,b) Bodyweights (means); (c, d) absolute tumor volumes (medians); (e,f) tumor volumes relative to individual volumes at start of treatment (medians); (g,h,i ,j) absolute and relative tumor volumes at final day of study (datapoints with means and 95% confidence interval). All tumor measurements are in vivo caliper measurements. Dotted vertical lines indicate days of treatment. All CBI groups dosed at 3 mg/kg i. v., ca . 1 0 0 µL injection volume in vehicle (10:90 DMSO:saline).
# 4T1 murine breast cancer = assay: 4T1 orthotopic breast cancer efficacy study; format: in vivo; details: 4T1 in Balb/c mice; CBI prodrugs 3 mg/kg
# From the text: We then moved to in vivo anticancer efficacy trials of these prodrugs. […] As one model we chose the syngeneic murine breast cancer 4T1, implanted orthotopically (at the native tissue site) into the fat pad of immunocompetent Balb/c mice (i.e., offering a realistic immune system and tumor microenvironment). This model gives rapid, aggressive tumor growth.[52] As a second model, we chose to xenograft human BxPC-3 pancreatic adenocarcinoma cells into immunodeficient hosts. This is a slower-growing model, with low metastasis, that can be more resistant to traditional antimitotic therapy.[53],[54] Mice were implanted, randomized once tumors reached 100–150 mm^3 volume, and treated once or twice weekly with prodrug or control compounds typically at 3 mg/kg (8–12 animals per condition, Figure 10a). Tumors were measured by caliper during the assay and weighed at termination.
# 7. 2. in vivo efficacy mouse studies
# 4T1 efficacy study BxPC-3 efficacy study a Absolute tumour volumes b Absolute tumour volumes […]
# days after tumor implantation days after tumor implantation c Relative tumour volumes d Relative tumour volumes […]
# e RTV! fi"al day of followu# f ex viv tumour weights g RTV! fi"al day of followu# h ex viv tumour weights (. mice remain in all *roups) (for animals left at day 31)(all *roups have statistical power)(day "2/ all animals left) […]
# vehicle(1x)(1x)(1x) (2x)(2x) […]
# P-##"0-#$%-&'%P-!!"0-#$%-&'%P-!!"0-#$%-()%P-!!"0-#$%-&'% %rinotecan %rinotecan P-##"0-#$%-&'%P-!!"0-#$%-()%P-!!"0-#$%-&'%P-!!"0-#$%-&'% P-!!"0-#$%-&'% P-!!"0-#$%-&'% […]
# i Body weights $ Body weights […]
# implant in Balb/c mice, 8 mice per group; (b, d,g,h,j): BxPC-3 subcutaneous xenograft in NMRi mice, 8 mice per […]
# treatment (m e d ia n); (e,g) in vivo caliper measurement of relative tum or volumes at final day of followup [last day when all mice in all groups remain in the study] […]
# tumor weights at termination of study (only mice not terminated on ethical grounds before the indicated days were harvested); (i,j) Bodyweights (means).
# (BxPC-3 study); dotted vertical lines indicate days of [potential] treatment.
# [7] = read-out: IC50(nM): HeLa, HeLa, 48 h
compound,measurement,setting,value
CN1CCN(C(=O)Oc2cc3c(c4ccccc24)C(CCl)CN3C(=O)c2cc3cc(OCCCN4CCC4)ccc3[nH]2)C2CSSCC21 (mixture of isomers) [Me-SS66T-CBI-AZI],IC50(HeLa)/IC50(A549),HeLa-HRE cells,1.0
same,IC50,HeLa-HRE cells; [7],49 nM
same,release/reduction on GSH challenge,[1],partial reduction
same,IC50,A549 cells,51 nM
same,GI50,[2]; 786-0,13 nM
same,GI50,[2]; A498,15 nM
same,GI50,[2]; A549/ATCC,1.8 nM
same,GI50,[2]; ACHN,2.4 nM
same,GI50,[2]; BT-549,21 nM
same,GI50,[2]; CAKI-1,2.8 nM
same,GI50,[2]; CCRF-CEM,7.4 nM
same,GI50,[2]; COLO 205,15 nM
same,GI50,[2]; DU-145,3.9 nM
same,GI50,[2]; EKVX,12 nM
same,GI50,[2]; HCC-2998,3.5 nM
same,GI50,[2]; HCT-15,3.8 nM
same,GI50,[2]; HCT-116,6.8 nM
same,GI50,[2]; HL-60(TB),9.9 nM
same,GI50,[2]; HOP-62,5.2 nM
same,GI50,[2]; HOP-92,18 nM
same,GI50,[2]; HT29,8.3 nM
same,GI50,[2]; IGROV1,17 nM
same,GI50,[2]; K-562,4.4 nM
same,GI50,[2]; KM12,16 nM
same,GI50,[2]; LOX IMVI,2.2 nM
same,GI50,[2]; M14,5.6 nM
same,GI50,[2]; MALME-3M,6.4 nM
same,GI50,[2]; MDA-MB-231,19.2 nM
same,GI50,[2]; MDA-MB-435,13 nM
same,GI50,[2]; MDA-MB-468,2.6 nM
same,GI50,[2]; MOLT-4,4.5 nM
same,GI50,[2]; NCI-H23,1.7 nM
same,GI50,[2]; NCI-H226,3.4 nM
same,GI50,[2]; NCI-H522,11 nM
same,GI50,[2]; OVCAR-3,27 nM
same,GI50,[2]; OVCAR-4,28 nM
same,GI50,[2]; OVCAR-5,6.9 nM
same,GI50,[2]; OVCAR-8,3.3 nM
same,GI50,[2]; PC-3,19.7 nM
same,GI50,[2]; RPMI-8226,23 nM
same,GI50,[2]; RXF 393,5.7 nM
same,GI50,[2]; SF-268,9 nM
same,GI50,[2]; SF-295,2.2 nM
same,GI50,[2]; SF-539,5.2 nM
same,GI50,[2]; SK-MEL-2,19 nM
same,GI50,[2]; SK-MEL-5,2.3 nM
same,GI50,[2]; SK-MEL-28,4.8 nM
same,GI50,[2]; SK-OV-3,15 nM
same,GI50,[2]; SN12C,10 nM
same,GI50,[2]; SNB-19,5.8 nM
same,GI50,[2]; SR,1.7 nM
same,GI50,[2]; SW-620,2.3 nM
same,GI50,[2]; T-47D,15 nM
same,GI50,[2]; TK-10,22 nM
same,GI50,[2]; U251,1.6 nM
same,GI50,[2]; UACC-62,2.2 nM
same,GI50,[2]; UACC-257,15 nM
same,GI50,[2]; UO-31,3.8 nM
O=C(c1cc2cc(OCCCN3CCC3)ccc2[nH]1)N1C[C@@H](CCl)c2c1cc(OCc1ccccc1)c1ccccc21 [OBn-CBI-AZI],IC50,"HeLa-HRE cells; initial screening, A549 and HeLa cell lines",> 1000 nM
same,IC50(HeLa)/IC50(A549),HeLa-HRE cells,1.8
same,IC50,HeLa-HRE cells; [7],750 nM
same,IC50,A549 cells,420 nM
same,GI50,[2]; 786-0,270 nM
same,GI50,[2]; A498,380 nM
same,GI50,[2]; A549/ATCC,160 nM
same,GI50,[2]; ACHN,35 nM
same,GI50,[2]; CAKI-1,190 nM
same,GI50,[2]; CCRF-CEM,410 nM
same,GI50,[2]; COLO 205,280 nM
same,GI50,[2]; EKVX,370 nM
same,GI50,[2]; HCC-2998,320 nM
same,GI50,[2]; HCT-15,130 nM
same,GI50,[2]; HCT-116,640 nM
same,GI50,[2]; HL-60(TB),440 nM
same,GI50,[2]; HOP-62,140 nM
same,GI50,[2]; HOP-92,500 nM
same,GI50,[2]; HT29,270 nM
same,GI50,[2]; IGROV1,190 nM
same,GI50,[2]; K-562,250 nM
same,GI50,[2]; KM12,810 nM
same,GI50,[2]; LOX IMVI,56 nM
same,GI50,[2]; M14,210 nM
same,GI50,[2]; MALME-3M,280 nM
same,GI50,[2]; MDA-MB-231,3070 nM
same,GI50,[2]; MDA-MB-435,330 nM
same,GI50,[2]; MOLT-4,270 nM
same,GI50,[2]; NCI-H23,73 nM
same,GI50,[2]; NCI-H226,210 nM
same,GI50,[2]; NCI-H460,17 nM
same,GI50,[2]; NCI-H522,380 nM
same,GI50,[2]; OVCAR-3,500 nM
same,GI50,[2]; OVCAR-4,540 nM
same,GI50,[2]; OVCAR-5,340 nM
same,GI50,[2]; OVCAR-8,240 nM
same,GI50,[2]; RPMI-8226,500 nM
same,GI50,[2]; RXF 393,230 nM
same,GI50,[2]; SF-268,330 nM
same,GI50,[2]; SF-295,46 nM
same,GI50,[2]; SF-539,290 nM
same,GI50,[2]; SK-MEL-2,370 nM
same,GI50,[2]; SK-MEL-5,270 nM
same,GI50,[2]; SK-MEL-28,330 nM
same,GI50,[2]; SK-OV-3,450 nM
same,GI50,[2]; SN12C,360 nM
same,GI50,[2]; SNB-19,330 nM
same,GI50,[2]; SR,44 nM
same,GI50,[2]; SW-620,260 nM
same,GI50,[2]; TK-10,560 nM
same,GI50,[2]; U251,61 nM
same,GI50,[2]; UACC-62,62 nM
same,GI50,[2]; UACC-257,390 nM
same,GI50,[2]; UO-31,260 nM
same,outcome at 10 mg/kg single dose,Balb/c mice [3],not lethal
CN(C(=O)Oc1cc2c(c3ccccc13)[C@H](CCl)CN2C(=O)c1cc2cc(OCCCN3CCC3)ccc2[nH]1)[C@H]1CCSSC1 [SS60-CBI-AZI],IC50,"HeLa-HRE cells; Homo sapiens, HeLa, 48 h, read-out: IC50(nM): HeLa",96 nM
same,IC50(HeLa)/IC50(A549),HeLa-HRE cells,0.8
same,IC50,A549 cells; Homo sapiens,120 nM
same,remarks,mouse,adverse effects
same,released cargo in plasma,[4],"no released HO-CBI-AZI, or activated cyclopropane, or adducts, were detected"
same,half-life,"[4]; mouse, plasma, iv, HPLC-MS/MS",~20 min
same,outcome of repeated dosing at 3 mg/kg,Balb/c mice [5]; once weekly,significant loss of body weight
same,outcome of repeated dosing at 1 mg/kg,Balb/c mice [5]; treated twice a week,tolerated
"CCc1c2c(nc3ccc(OC(=O)N4CCC(N5CCCCC5)CC4)cc13)-c1cc3c(c(=O)n1C2)COC(=O)[C@]3(O)CC [irinotecan, reference compound]",effect on tumor growth,[6],failed to slow tumor growth
same,effect on tumor growth,4T1 murine breast cancer,expected tumor-slowing effect

# Source: paper PMC10141580, “Cyclic Dichalcogenides Extend the Reach of Bioreductive Prodrugs to Harness Thiol/Disulfide Oxidoreductases: Applications to seco-Duocarmycins Targeting the Thioredoxin System” (ACS Central Science, 2023)
